# Laboratory results published in PMC10222454, “Characterization of the Molecular Diversity and Degranulation Activity of Mastoparan Family Peptides from Wasp Venoms” (Toxins, 2023).
# Where two headings read alike, the source gives them in different places. Ends that are not written are not given here.
# Columns and labels:
# [1] = test system: RBL-2H3 cells; assay type: cell-based, rat; conditions: for Degranulation at 80 μg/mL, RBL-2H3: RBL-2H3 cells, 80 μg/mL peptide, 15 min at 37 °C, % of total β-hexosaminidase (0.1% Triton X-100 lysis)
# Experimental: (§1) RBL-2H3 cells (rat mucosal-type mast cell line) and P815 cells (mouse mast cell tumor cell line) were obtained from the BeNa Culture Collection (Xinyang, China). RBL-2H3 cells were cultured in DMEM (Gibco, Wuhan, China) supplemented with 15% FBS (Gibco), and P815 cells were maintained in RPMI 1640 basic medium supplemented with 10% FBS and antibiotics (100 mg/L streptomycin and 1 × 10^5 U/L penicillin) in a humidified atmosphere (5% CO2, 37 °C).
# (§2) Degranulation was analyzed by measuring the release of the granule marker N-acetyl-D-glucosaminidase (β-hexosaminidase), which colocalizes with histamine, as described in [24]. For this, 2 × 10^5 P815 cells/mL or 1.5 × 10^5 RBL-2H3 cells/mL were seeded in 96-well cell culture plates. Twelve hours later, the cells were incubated with various concentrations of mastoparans dissolved in 100 μL HEPES buffer (137 mM NaCl, 2.7 mM KCl, 1 mM MgCl2, 1.8 mM CaCl2, 20 mM HEPES, 1 mg/mL BSA, and 1 mg/mL glucose, pH 7.4) for 15 min at 37 °C and 5% CO2. Then, the reactions were quenched by the addition of 0.15 mL of ice-cold HEPES buffer. After centrifugation, the supernatants were sampled for the β-hexosaminidase assay. Briefly, 50 μL samples of the cell culture supernatants and 50 μL of the substrate, 5 mM p-nitrophenyl-N-acetyl-b-D-glucosaminide (Sigma) in 0.2 M citrate, pH 4.5, were incubated in 96-well plates at 37 °C and 5% CO2 for 16–18 h to yield the chromophore p-nitrophenol, and the reactions were stopped by the addition of 100 μL of 0.2 M glycine solution, pH 10.7. The absorbance of the colored product was assessed at 405 nm using a microtiter plate reader. The values for β-hexosaminidase released in the medium are expressed as the percentage of total β-hexosaminidase, which was measured in the cells after lysis in 0.1% Triton X-100. The experiment was repeated three times, and the results represent the mean and standard deviation (SD) of quadruplicate tests. The percent degranulation was calculated according to the following equation:Degranulation Rate (%) = 100% × (Amastoparans − AHEPES)/(ATriton X-100 − AHEPES).
# Statistical analysis was performed with GraphPad Prism software. The curve of mast cell degranulation induced by wasp mastoparans was generated in SigmaPlot 12.5 software, and the EC50 was calculated according to the following equation (Four-Parameter Logistic Curve): y = min + (max − min)/(1 + (x/EC50) […] Hillslope).
# [2] = test system: P815 cells; test: Mast cell degranulation activity (β-hexosaminidase release) in P815 cells; assay type: cell-based, mouse; conditions: P815 cells, 80 μg/mL peptide, 15 min at 37 °C, % of total β-hexosaminidase (0.1% Triton X-100 lysis)
# Experimental: as §1, §2
Compound,EC50 ([1]; pH 7.4),also measured
INWLKLGKKVIAAL-NH2 [Protopolybia-MP III-6],,EC50 [1]: 69.1 ± 12.3 µM
INWKKIASIGKEVLKAL-NH2 [PMM2],36.6 ± 4.61 µM,
INWKKIKSLIKAAMS-NH2 [MP-V2],88.9 ± 61.3 µM,
INWLKLGKKMMSAL-NH2 [MP],66.8 ± 30.7 µM,
GRILSFIKGLAEHL-NH2 [EMP-OD],> 200 µM,"Degranulation at 80 μg/mL, RBL-2H3 [1]: 4%; EC50 (μg/mL), RBL-2H3 ([1]; pH 7.4): >300 µg/mL; Degranulation at 80 μg/mL, P815 [2]: <20%"
INLKALLAVAKKIL-NH2 [Mastoparan-C],32.6 ± 8.56 µM,
INWKKMAATALKMI-NH2 [Parapolybia-MP],89.4 ± 19.9 µM,
INWAKLGKLALQAL-NH2 [Ropalidia-MP],33 ± 5.79 µM,
INLFGFAALVKKFL-NH2 [Mastoparan-T4],18.2 ± 3.52 µM,
INWKGIAAMKKLL-NH2 [Mastoparan-like peptide 12b],> 200 µM,"Degranulation at 80 μg/mL, RBL-2H3 [1]: 11%; EC50 (μg/mL), RBL-2H3 ([1]; pH 7.4): >300 µg/mL; Degranulation at 80 μg/mL, P815 [2]: <20%"
INWLKLGKKILGAL-NH2 [PDD-B],21.7 ± 3.78 µM,
INLLKIAKGIIKSL-NH2 [EMP-AF],76.9 ± 19.6 µM,
VDWKKIGQHILSVL-NH2 [Mastoparan-J],37.3 ± 5.13 µM,
INLKALAALVKKVL-NH2 [Mastoparan-II],58.7 ± 24.8 µM,
INWLKLGKKVSDIL-NH2 [Protopolybia-MP III-13],,EC50 [1]: 145 ± 24.4 µM
INWKALLDAAKKVL-NH2 [Protonectarina-MP],46.4 ± 3.1 µM,
INWKAIIEAAKQAL-NH2 [Protopolybia-MPII],77.9 ± 9.08 µM,

Compound,EC50 ([1]; pH 7.4),also measured
INWKGIAAMAKKLL-NH2 [Mastoparan-X(V)],78.8 ± 15 µM,
INWLKLGKKVSAAL-NH2 [Protopolybia-MP III-14],,"EC50 [1]: > 325 µM; EC50 (μg/mL), Protopolybia-MPIII and mutations [1]: >500 µg/mL; degranulation activity of mutant compared with Protopolybia-MPIII, in words ([1]; mutants of Protopolybia-MPIII, Table 3): almost lost"
INWLKLGKKILGAI-NH2 [Pm-R1],22.9 ± 4.77 µM,
INWLKLGKAVSDAL-NH2 [Protopolybia-MP III-2],,EC50 [1]: 193 ± 28.8 µM
INLKAIAALAKKLF-NH2 [Mastoparan-AF],18.1 ± 3.94 µM,
INLKAIAALVKKVL-NH2 [HR1],48.8 ± 3.57 µM,
INWLKLGKMVIDAL-NH2 [Polybia-MPII],6.79 ± 0.4 µM,
INWLKLGKKVIDIL-NH2 [Protopolybia-MP III-7],,EC50 [1]: 25.2 ± 1.56 µM
FDVMGIIKKIASAL-NH2 [EMP-EF],25.1 ± 1.59 µM,
INWLKLGKAVIDIL-NH2 [Protopolybia-MP III-4],,EC50 [1]: 28.1 ± 3.71 µM
CC[C@H](C)[C@H](NC(=O)[C@H](CC(=O)O)NC(=O)[C@@H](N)Cc1ccccc1)C(=O)N[C@@H](CCSC)C(=O)NCC(=O)N[C@@H](CC(C)C)C(=O)N[C@H](C(=O)N[C@@H](CCCCN)C(=O)N[C@@H](CCCCN)C(=O)N[C@H](C(=O)N[C@@H](C)C(=O)NCC(=O)N[C@@H](C)C(=O)N[C@@H](CC(C)C)C(N)=O)C(C)C)[C@@H](C)CC [EMP-ER],76.2 ± 5.81 µM,
INWLKLGKKVSAIL-NH2 [Protopolybia-MPI],117 ± 38.3 µM,
INWHDIAIKNIDAL-NH2 [Polybia-MPV],> 200 µM,"Degranulation at 80 μg/mL, RBL-2H3 [1]: 1%; EC50 (μg/mL), RBL-2H3 ([1]; pH 7.4): >300 µg/mL; Degranulation at 80 μg/mL, P815 [2]: <20%"
INLKAIAAFAKKLL-NH2 [Mastoparan-T],138 ± 68.4 µM,
LKLMGIVKKVLGAL-NH2 [MP-EM1],197 ± 164 µM,
INWKKIAEIGKQVLSAL-NH2 [Dominulin B],,"Degranulation at 80 μg/mL, RBL-2H3 [1]: 24%; EC50 (μg/mL), RBL-2H3 ([1]; pH 7.4): 148.45 ± 51.31 µg/mL; Degranulation at 80 μg/mL, P815 [2]: <20%"
